Patent publication US8153773B2, “Synthesis and use of anti-reverse phosphorothioate analogs of the messenger RNA cap” (Board of Supervisors of Louisiana State University and …, priority 2007, dated 2012)

Key:
murine eIF4E (28-217) = target: T1, murine eIF4E (28-217) (Mus musculus, UniProt P63073); assay: Binding affinities for eIF4E by fluorescence quenching; parameters: Cap - eIF4E KAS: unit not given here; details: for ΔG°: binding free energy calculated from KAS; for ΔG° / KAS: murine eIF4E (28-217); for Cap - eIF4E KAS / KAS: equilibrium association constant; for Cap - eIF4E KAS: mouse eIF4E (amino acids 28-217), 20° C.; for KAS: fluorescence quenching; for affinity for eIF4E (KAS) relative to m2^7,2′-OGpppG: fold higher than the parent ARCA; for affinity for eIF4E (KAS) of D1 relative to D2 diastereomer: fold higher than the D2 member
T1 construct: (28-217) to phosphorothioate cap analogs, as determined
T1 sequence (P63073 28-217): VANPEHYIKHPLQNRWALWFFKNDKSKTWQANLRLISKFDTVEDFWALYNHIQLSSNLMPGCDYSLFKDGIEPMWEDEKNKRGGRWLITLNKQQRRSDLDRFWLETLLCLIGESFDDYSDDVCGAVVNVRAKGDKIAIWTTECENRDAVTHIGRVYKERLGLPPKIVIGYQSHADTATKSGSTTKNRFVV
Method: Binding affinities of S analogs for murine eIF4E were determined by fluorescence quenching. Fluorescence titration measurements were carried out on an LS-50B spectrofluorometer (Perkin Elmer Co.) in 50 mM HEPES/KOH (pH 7.2), 100 mM KCl, 0.5 mM EDTA, 1 mM DTT at 20.0±0.2° C. Aliquots of 1 μl increasing concentration of cap analogue solutions were added to 1.4 ml of […] solutions. Fluorescence intensities (excitation at 280 nm with 2.5 nm bandwidth and detection at 337 nm with 4 nm bandwidth and 290 nm cut-off filter) were corrected taking into account sample dilution and the inner filter effect. Equilibrium association constants (KAS) were determined by fitting the theoretical dependence of the fluorescence intensity on the total concentration of cap analogue to the experimental data points according to equation described previously (See A. Niedzwiecka et al., “Biophysical studies of eIF4E cap-binding protein: recognition of mRNA 5′ cap structure and synthetic fragments of eIF4G and 4E-BP1 proteins,” J. Mol. Biol., vol. 319, pp. 615-635 (2002)). The concentration of protein was fitted as a free parameter of equilibrium equation showing amount of “active” protein. The final KAS was calculated as a weighted average of three to ten independent titrations, with the weights taken as the reciprocals of the numerical standard deviations squared. Numerical nonlinear least-squares regression analysis was performed using ORGIN 6.0 (Microcal Software Inc., USA). The Gibbs free energy of binding was calculated from the KAS value according to the standard equation ΔG°=−RTlnKAS.

HC11 cells [1] = assay: Polysomal distribution of capped luciferase mRNA in HC11 cells; type: cell-based, mouse; details: HC11 cells lysed 4 h after electroporation, sucrose gradient
Method: To separate ribosomal subunits and initiation complexes, 4×10^6 HC11 cells were treated for 2 min with ice-cold PBS containing 0.1 mg/ml cycloheximide, washed twice with the same medium, and lysed in 600 μl of 0.3 M NaCl, 15 mM Tris-HCl (pH 7.6), 15 mM MgCl2, 1% Triton X-100, 1 mg/ml heparin, and 0.1 mg/ml cycloheximide. After centrifugation at 14,000×g for 10 min, the supernatant was layered on a 15-45% sucrose gradient in the same buffer but lacking Triton X-100 and centrifuged in a Beckman SW41 Ti rotor at 38,000 rpm at 4° C. for 2 h. Gradients were fractionated with continuous monitoring of absorbance at 260 nm. RNA from each fraction (1 ml) was isolated and analyzed by real time PCR.
We used an independent method to validate the observation that m2^7,2′-OGppspG-capped mRNAs were translated more efficiently, namely, their polysomal distribution (FIGS. 9A-9E). An increase in the rate of initiation relative to elongation or termination results in a shift of the mRNA from lighter to heavier polysomes. See H. Lodish, “Model for the regulation of mRNA translation applied to haemoglobin synthesis,” Nature, vol. 251, pp. 385-388 (1974). The type of cap structure is not expected to affect the rate of elongation. Thus, a shift to higher polysomes indicates faster initiation.
Luc A60 mRNA capped with m^7 Gp3G, m2^7,2′-OGp3G or m2^7,2′-OGppspG (D2) was electroporated into HC11 cells. […]

[2] = system: rabbit reticulocyte lysate; assay: Cell-free translation of capped Luc-A60 mRNA in the rabbit reticulocyte lysate system; type: biochemical; details: data not shown
Text: Luc-A60 mRNA capped with m2^7,2′-OGppspG (D1) and m2^7,2′-OGppspG (D2) was translated 2.8- and 5.1-fold more efficiently than m^7Gp3G-capped mRNA, respectively (FIG. 8 and Table 2). For cell-free translation in the rabbit reticulocyte lysate system, Luc-A60 mRNAs capped with m2^7,2′-OGppspG (D1) and m2^7,2′-OGppspG (D2) were translated only 2.3-fold more efficiently than Luc-A60 mRNA capped with m^7Gp3G (data not shown).

HC11 cells [3] = assay: Time course of luciferase expression after nucleoporation of HC11 cells; type: cell-based, mouse; details: luciferase activity up to 10 h after nucleoporation, normalized for Luc-A60 delivered
Method: Two methods, electroporation and nucleoporation, were used to deliver RNA into cells. In case of electroporation, 5 μg of RNA were introduced into 10^7 HC11 cells in a total volume 400 μl of serum-reduced RPMI 1640 medium in a Gene pulser cuvette (4 mm gap) with a Bio-Rad Genepulser™ set at 0.22 kV and 960 μF. Following discharge, the cells were washed twice with PBS, centrifuged for 2 min 300×g at room temperature, resuspended in prewarmed complete medium, and placed at 37° C. Nucleoporation was performed with an Amaxa Nucleofector II (Amaxa Biosystems) in accordance with manufacture's recommendations. One microgram of RNA was introduced into 10^6 HC11 cells with Nucleofector Solution V and the set of recommended regimens (program T-024).
For cytoplasmic RNA extraction, 2×10^5 cells were lysed in 175 μl of lysis buffer (50 mM Tris-HCl, pH 8.0, 140 mM NaCl, 1.5 mM MgCl2, 0.5% (v/v) Igepal (Sigma), and 1 mM dithiothreitol). […] Luciferase activity of cell extracts was measured according to the manufacturer's protocol (Promega).
We also determined the overall accumulation of luciferase, as measured by its enzymatic activity, as a function of time for mRNAs capped with m2^7,2′-OGp3G, m2^7,2′-OGppspG (D1), and m2^7,2′-OGppspG (D2). […] Luciferase activity measured in the supernatant was normalized for the amount of Luc-A60 delivered into the cells. […]

CO[C@@H]1[C@H](O)[C@@H](COP(=O)(O)OP(=O)([O-])OP(=O)(O)OC[C@H]2O[C@@H](n3cnc4c(=O)[nH]c(N)nc43)[C@H](O)[C@@H]2O)O[C@H]1n1c[n+](C)c2c(O)nc(N)nc21 [m2^7,2′-OGpppG, reference compound]
ΔG° (murine eIF4E (28-217)): -9.43 kcal/mol
Cap - eIF4E KAS (murine eIF4E (28-217)): 10.8 ± 0.3
KAS (murine eIF4E (28-217)): 10.8 ± 0.3 µM⁻¹
polysomal distribution of capped Luc A60 mRNA (HC11 cells [1]): shifted to higher polysomes

m2^7,2′-OGpppsG (D1) [Compound 4a]
ΔG° (murine eIF4E (28-217)): -9.76 kcal/mol
Cap - eIF4E KAS (murine eIF4E (28-217)): 34.3 ± 1.3
KAS (murine eIF4E (28-217)): 19.2 ± 0.8 µM⁻¹
affinity for eIF4E (KAS) relative to m2^7,2′-OGpppG (murine eIF4E (28-217)): 3 fold

m2^7,2′-OGpppsG (D2) [Compound 4b]
ΔG° (murine eIF4E (28-217)): -9.62 kcal/mol
Cap - eIF4E KAS (murine eIF4E (28-217)): 12.9 ± 0.9
KAS (murine eIF4E (28-217)): 15.0 ± 0.6 µM⁻¹

m2^7,2′-OGppspG (D1) [Compound 5a]
ΔG° (murine eIF4E (28-217)): -10.23 ± 0.02 kcal/mol
Cap - eIF4E KAS (murine eIF4E (28-217)): 42.1 ± 1.6
KAS (murine eIF4E (28-217)): 43.1 ± 1.4 µM⁻¹
affinity for eIF4E (KAS) of D1 relative to D2 diastereomer (murine eIF4E (28-217)): 2 fold
translational efficiency relative to m^7Gp3G-capped Luc-A60 mRNA [2]: 2.3 fold

m2^7,2′-OGppspG (D2) [Compound 5b]
ΔG° (murine eIF4E (28-217)): -9.77 kcal/mol
Cap - eIF4E KAS (murine eIF4E (28-217)): 18.3 ± 3.4
KAS (murine eIF4E (28-217)): 19.3 ± 2.2 µM⁻¹
translational efficiency relative to m^7Gp3G-capped Luc-A60 mRNA [2]: 2.3 fold
polysomal distribution of capped Luc A60 mRNA (HC11 cells [1]): shifted to even higher polysomes
overall accumulation of luciferase (HC11 cells [3]): The most luciferase accumulated

m2^7,2′-OGpsppG (D1) [Compound 6a]
ΔG° (murine eIF4E (28-217)): -10.12 kcal/mol
Cap - eIF4E KAS (murine eIF4E (28-217)): 19.3 ± 1.8
KAS (murine eIF4E (28-217)): 35.2 ± 1.1 µM⁻¹
affinity for eIF4E (KAS) of D1 relative to D2 diastereomer (murine eIF4E (28-217)): 3 fold
affinity for eIF4E (KAS) relative to m2^7,2′-OGpppG (murine eIF4E (28-217)): 3 fold

m2^7,2′-OGpsppG (D2) [Compound 6b]
ΔG° (murine eIF4E (28-217)): -9.53 kcal/mol
Cap - eIF4E KAS (murine eIF4E (28-217)): 15.4 ± 0.5
KAS (murine eIF4E (28-217)): 12.9 ± 0.4 µM⁻¹
